Reference: US10343992B2, “1-cyano-pyrrolidine compounds as USP30 inhibitors” (MISSION THERAPEUTICS LIMITED, priority 2015, dated 2019)

Each compound was assayed against USP30 (Homo sapiens (Human), UniProt Q70CQ3) (assay: USP30 biochemical FP or FI IC50 assay). Conditions: read-out: IC50 range.
USP30, sequence (Q70CQ3 57-517): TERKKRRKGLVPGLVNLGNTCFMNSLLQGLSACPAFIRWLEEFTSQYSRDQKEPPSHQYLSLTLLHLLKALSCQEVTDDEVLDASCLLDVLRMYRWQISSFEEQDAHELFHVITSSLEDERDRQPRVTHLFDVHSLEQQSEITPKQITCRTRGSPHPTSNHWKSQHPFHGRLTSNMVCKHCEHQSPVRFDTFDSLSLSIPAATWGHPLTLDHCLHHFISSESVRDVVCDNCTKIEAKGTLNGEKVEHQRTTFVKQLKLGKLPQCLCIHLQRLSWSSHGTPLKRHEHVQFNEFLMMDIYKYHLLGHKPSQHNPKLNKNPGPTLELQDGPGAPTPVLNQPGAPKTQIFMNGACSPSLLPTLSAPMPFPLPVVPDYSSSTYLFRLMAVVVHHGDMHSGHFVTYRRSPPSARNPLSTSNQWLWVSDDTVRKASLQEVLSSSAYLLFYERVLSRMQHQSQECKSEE
How it was run: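 Human USP30 preincubated 30 min at room temperature with compound (8-point series, 100 µM top final) in Tris pH 7.5, Tween 20, BSA, 5 mM β-mercaptoethanol, in duplicate. FP format: 50 nM TAMRA-peptide–isopeptide-ubiquitin substrate, ex 540/em 590. FI format: 100 nM ubiquitin-rhodamine 110, ex 487/em 535. Both read at 0 and after 2 h at room temperature.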
In the case of `Cc1cc(-c2ccc(NC(=O)N3CC[C@@H]4CN(C#N)C[C@@H]43)c(F)c2)ccn1` [Example 243, (3aR,6aR)-5-cyano-N-(2-fluoro-4-(2-methylpyridin-4-yl)phenyl)hexahydropyrrolo[3,4-b]pyrrole-1(2H)-carboxamide], the IC50 is reported as 0.1 to 1 µM. For `Cc1cc(-c2ccc(NC(=O)N3CC[C@@H]4CN(C#N)C[C@@H]43)nc2)ccn1` [Example 244, (3aR,6aR)-5-cyano-N-(2′-methyl-[3,4′-bipyridin]-6-yl)hexahydropyrrolo[3,4-b]pyrrole-1(2H)-carboxamide], the IC50 was < 0.1 µM. With `Cn1cc(-c2ccc(NC(=O)N3CC[C@@H]4CN(C#N)C[C@@H]43)c(F)c2)cn1` [Example 245, (3aR,6aR)-5-cyano-N-(2-fluoro-4-(1-methyl-1H-pyrazol-4-yl)phenyl)hexahydropyrrolo[3,4-b]pyrrole-1(2H)-carboxamide] the IC50 was 0.1 to 1 µM. `N#CN1C[C@H]2CCN(C(=O)N3CC(Oc4ccccc4)C3)[C@H]2C1` [Example 247, (3aR,6aR)-1-(3-phenoxyazetidine-1-carbonyl)hexahydropyrrolo[3,4-b]pyrrole-5(1H)-carbonitrile] gave an IC50 of 0.1 to 1 µM. `N#CN1CCCC(NC(=O)c2cccc(-c3ccccc3)c2)C1` (stereo not shown) [Example 248, N-(1-cyanopiperidin-3-yl)-[1,1′-biphenyl]-3-carboxamide] showed an IC50 of 1 to 10 µM. `N#CN1CCCC(NC(=O)Nc2cccc(Oc3ccccc3)c2)C1` (stereo not shown) [Example 250, 1-(1-cyanopiperidin-3-yl)-3-(3-phenoxyphenyl)urea] gave an IC50 of 1 to 10 µM. Work on `N#CN1CCC(NC(=O)Nc2ccc(Cl)cc2Cl)C1` (stereo not shown) [Example 251, 1-(1-cyanopyrrolidin-3-yl)-3-(2,4-dichlorophenyl)urea] yielded an IC50 of 0.1 to 1 µM. Work on `N#CN1CCC(NC(=O)Nc2ccc(C(F)(F)F)cc2)C1` (stereo not shown) [Example 252, 1-(1-cyanopyrrolidin-3-yl)-3-(4-(trifluoromethyl)phenyl)urea] yielded an IC50 of 0.1 to 1 µM. For `N#CN1CCC(NC(=O)Nc2cccc(Cc3ccccc3)c2)C1` (stereo not shown) [Example 253, 1-(3-benzylphenyl)-3-(1-cyanopyrrolidin-3-yl)urea], the IC50 was 0.1 to 1 µM. For `N#CN1CCC(NC(=O)Nc2cccc(Oc3ccccc3)c2)C1` (stereo not shown) [Example 255, 1-(1-cyanopyrrolidin-3-yl)-3-(3-phenoxyphenyl)urea], the IC50 was < 0.1 µM. `CN(C(=O)Nc1cccc(Cc2ccccc2)c1)C1CCN(C#N)C1` (stereo not shown) [Example 256, 3-(3-benzylphenyl)-1-(1-cyanopyrrolidin-3-yl)-1-methylurea] gave an IC50 of 0.1 to 1 µM. For `CN(C(=O)Nc1cccc(Cl)c1)C1CCN(C#N)C1` (stereo not shown) [Example 257, 3-(3-chlorophenyl)-1-(1-cyanopyrrolidin-3-yl)-1-methylurea], the IC50 was 0.1 to 1 µM. For `CN(C(=O)Nc1cccc(Oc2ccccc2)c1)C1CCN(C#N)C1` (stereo not shown) [Example 258, 1-(1-cyanopyrrolidin-3-yl)-1-methyl-3-(3-phenoxyphenyl)urea], the IC50 was < 0.1 µM. `CN(C(=O)Nc1ccc(-c2ccccc2)cc1)C1CCN(C#N)C1` (stereo not shown) [Example 259, 3-([1,1′-biphenyl]-4-yl)-1-(1-cyanopyrrolidin-3-yl)-1-methylurea] was tested, and the IC50 was < 0.1 µM. In the case of `CN(C(=O)Nc1ccc(Cl)cc1Cl)C1CCN(C#N)C1` (stereo not shown) [Example 260, 1-(1-cyanopyrrolidin-3-yl)-3-(2,4-dichlorophenyl)-1-methylurea], the IC50 is reported as 0.1 to 1 µM. `CN(C(=O)Nc1ccc(C(F)(F)F)cc1)C1CCN(C#N)C1` (stereo not shown) [Example 261, 1-(1-cyanopyrrolidin-3-yl)-1-methyl-3-(4-(trifluoromethyl)phenyl)urea] was tested, and the IC50 was 0.1 to 1 µM. With `CN(C(=O)c1cc2cc(-c3cnn(C)c3)ncc2[nH]1)[C@@H]1CCN(C#N)C1` [Example 263, (R)-N-(1-cyanopyrrolidin-3-yl)-N-methyl-5-(1-methyl-1H-pyrazol-4-yl)-1H-pyrrolo[2,3-c]pyridine-2-carboxamide] the IC50 was 0.1 to 1 µM. `CN(C(=O)N1CCOC(c2ccccc2)C1)[C@@H]1CCN(C#N)C1` (stereo partly drawn) [Example 264, N-((R)-1-cyanopyrrolidin-3-yl)-N-methyl-2-phenylmorpholine-4-carboxamide] gave an IC50 of 0.1 to 1 µM. For `CN(C(=O)N1CCc2ccccc21)[C@@H]1CCN(C#N)C1` [Example 265, (R)-N-(1-cyanopyrrolidin-3-yl)-N-methylindoline-1-carboxamide], the IC50 was 1 to 10 µM. Compound `CN(C(=O)Nc1ccc(C(F)(F)F)nc1)[C@@H]1CCN(C#N)C1` [Example 266, (R)-1-(1-cyanopyrrolidin-3-yl)-1-methyl-3-(6-(trifluoromethyl)pyridin-3-yl)urea] has an IC50 of 0.1 to 1 µM. Compound `CN(C(=O)Nc1ccc(Cl)cn1)[C@@H]1CCN(C#N)C1` [Example 267, (R)-3-(5-chloropyridin-2-yl)-1-(1-cyanopyrrolidin-3-yl)-1-methylurea] has an IC50 of 0.1 to 1 µM. For `N#CN1C[C@H]2CCN(C(=O)c3ccc(N4CCOCC4)c(Cl)c3)[C@H]2C1` [Example 268, (3aR,6aR)-1-(3-chloro-4-morpholinobenzoyl)hexahydro-pyrrolo[3,4-b]pyrrole-5(1H)-carbonitrile], the IC50 was 0.1 to 1 µM. Work on `Cc1cc(-c2cc(C(=O)N[C@@H]3CCN(C#N)C3)on2)ccn1` [Example 270, (R)-N-(1-cyanopyrrolidin-3-yl)-3-(2-methylpyridin-4-yl)isoxazole-5-carboxamide] yielded an IC50 of 0.1 to 1 µM. For `Cc1ccc(-c2cc(C(=O)N[C@@H]3CCN(C#N)C3)on2)cc1C` [Example 271, (R)-N-(1-cyanopyrrolidin-3-yl)-3-(3,4-dimethylphenyl)isoxazole-5-carboxamide], the IC50 was < 0.1 µM. In the case of `N#CN1CC[C@@H](NC(=O)c2cc(-c3ccc(F)cc3F)no2)C1` [Example 272, (R)-N-(1-cyanopyrrolidin-3-yl)-3-(2,4-difluorophenyl)isoxazole-5-carboxamide], the IC50 is reported as < 0.1 µM. `Cc1cc(-c2cc(C(=O)N(C)[C@@H]3CCN(C#N)C3)on2)ccn1` [Example 273, (R)—N-(1-cyanopyrrolidin-3-yl)-N-methyl-3-(2-methylpyridin-4-yl)isoxazole-5-carboxamide] gave an IC50 of 0.1 to 1 µM. In the case of “(3aR,6aR)-1-(indoline-1-carbonyl)hexahydropyrrolo[3,4-b]pyrrole-5(1H)-carbonitrile [Example 269]”, the IC50 is reported as 1 to 10 µM. “(R)-N-(1-cyanopyrroldidin-3-yl)-6-(3,5-dimethylisoxazol-4-yl)-N-methyl-1H-indole-2-carboxamide [Example 262]” was tested, and the IC50 was < 0.1 µM.
